{"source": "ChEMBL document CHEMBL5584334", "about": "“Discovery of a Covalent Inhibitor of Pro-Caspase-1 Zymogen Blocking NLRP3 Inflammasome Activation and Pyroptosis” (J Med Chem, 2024)", "key": {"Mus musculus [1]": {"tested_on": "Mus musculus", "assay": "Anti-inflammatory activity in MSU/C18:0 free fatty acid induced Kunming mouse model of gouty arthritis assessed as effect on pro-caspase-1 expression at 5 to 20 mg/kg, ip preadministered with compound for 30 mins followed by MSU/C18:0 free fatty acid injection and measured after 24 hrs by Western blotting analysis", "format": "functional, organism-based", "conditions": "dose 5-20 mg/kg, time 24.5 hrs"}, "HEK293T [2]": {"tested_on": "HEK293T", "assay": "Inhibition of recombinant caspae-1 C285A/C397A double mutant (unknown origin) to GSDMD (unknown origin) interaction expressed in HEK293T cells", "format": "cell-based", "conditions": "Homo sapiens"}, "J774.A1 [3]": {"tested_on": "J774.A1", "assay": "Inhibition of ASC to pro-caspase-1 interaction in LPS/nigericin stimulated mouse J774.A1 cells", "format": "cell-based"}, "J774.A1 [4]": {"tested_on": "J774.A1", "assay": "Inhibition of NF-kappaB signaling in LPS-stimulated mouse J774.A1 cells at 1 uM preincubated for 30 mins followed by LPS addition and measured after 2 hrs by Western blotting analysis", "format": "cell-based", "conditions": "time 2.5 hrs"}, "THP-1 [5]": {"tested_on": "THP-1", "assay": "Effect on cleaved caspase-5 expression in human THP-1 cells at 2 uM pretreated with pam3CSK4 for 3 hrs followed by compound addition for 30 mins prior to cytosolic LPS stimulation for 16 hrs by ELISA", "format": "functional, cell-based", "conditions": "time 16.5 hrs"}, "J774.A1 [6]": {"tested_on": "J774.A1", "assay": "Downregulation of inhibitor kappa B-alpha phosphorylation in mouse J774.A1 cells at 0.5 to 2 uM preincubated for 30 mins followed by LPS addition and measured after 2 hrs by Western blotting analysis", "format": "functional, cell-based", "conditions": "dose 0.5-2 µM, time 2.5 hrs"}, "BMDM": {"tested_on": "BMDM", "assay": "Effect on pro caspase-11 expression in mouse BMDM cells at 0.5 to 2 uM pretreated with pam3CSK4 for 3 hrs followed by compound addition for 30 mins prior to cytosolic LPS stimulation for 16 hrs by ELISA", "format": "functional, cell-based", "conditions": "dose 0.5-2 µM, time 16.5 hrs"}, "Mus musculus [7]": {"species_on_record": "Mus musculus", "assay": "Inhibition of pain perception in MSU/C18:0 free fatty acid induced Casp1 knockout mouse measured upto 24 hrs", "format": "functional, organism-based"}, "[8]": {"molecular_target": "NACHT, LRR and PYD domains-containing protein 3 (Mus musculus) (UniProt Q8R4B8)", "sequence (Q8R4B8 whole entry, the tested form may be a part)": "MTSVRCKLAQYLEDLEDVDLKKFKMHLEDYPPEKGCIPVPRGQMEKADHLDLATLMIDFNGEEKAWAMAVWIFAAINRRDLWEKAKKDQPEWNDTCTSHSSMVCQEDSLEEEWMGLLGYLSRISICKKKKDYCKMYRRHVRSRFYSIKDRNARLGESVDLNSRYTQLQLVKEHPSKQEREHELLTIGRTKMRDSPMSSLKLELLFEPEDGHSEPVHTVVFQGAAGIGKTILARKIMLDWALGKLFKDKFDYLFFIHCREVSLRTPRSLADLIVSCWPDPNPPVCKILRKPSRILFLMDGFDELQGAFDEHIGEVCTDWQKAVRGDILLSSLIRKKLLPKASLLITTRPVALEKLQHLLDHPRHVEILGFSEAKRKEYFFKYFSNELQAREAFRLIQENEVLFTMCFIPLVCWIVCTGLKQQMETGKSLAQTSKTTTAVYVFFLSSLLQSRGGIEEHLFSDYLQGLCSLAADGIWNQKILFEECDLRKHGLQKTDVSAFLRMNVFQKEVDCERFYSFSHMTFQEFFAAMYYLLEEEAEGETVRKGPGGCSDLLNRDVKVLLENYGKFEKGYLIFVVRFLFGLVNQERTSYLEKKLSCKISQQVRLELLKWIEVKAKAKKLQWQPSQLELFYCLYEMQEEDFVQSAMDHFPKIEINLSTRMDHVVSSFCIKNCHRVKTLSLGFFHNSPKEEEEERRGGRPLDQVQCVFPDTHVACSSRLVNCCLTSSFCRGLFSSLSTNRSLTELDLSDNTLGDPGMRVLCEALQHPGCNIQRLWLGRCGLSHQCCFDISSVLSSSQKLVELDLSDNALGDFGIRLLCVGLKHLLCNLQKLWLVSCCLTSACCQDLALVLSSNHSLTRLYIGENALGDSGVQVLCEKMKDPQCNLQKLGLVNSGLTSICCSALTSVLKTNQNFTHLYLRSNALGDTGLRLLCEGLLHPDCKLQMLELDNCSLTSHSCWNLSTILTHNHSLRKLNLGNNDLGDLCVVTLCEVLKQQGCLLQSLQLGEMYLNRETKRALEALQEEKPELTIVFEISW", "assay": "Inhibition of NLRP3 inflammasome activation in LPS/ATP stimulated mouse J774.A1 cells assessed as reduction in IL-18 production incubated for 30 mins by ELISA", "format": "cell-based"}, "THP-1 [9]": {"tested_on": "THP-1", "assay": "Inhibition of p20 fragment of caspase 1 protein expression in LPS/ATP stimulated human THP-1 cells supernatant by Western blotting analysis", "format": "functional, cell-based"}, "THP-1 [10]": {"tested_on": "THP-1", "assay": "Effect on pro-caspase 1 protein expression in LPS/ATP stimulated human THP-1 cells supernatant by Western blotting analysis", "format": "functional, cell-based"}, "J774.A1 [11]": {"tested_on": "J774.A1", "assay": "Downregulation of p65 phosphorylation in mouse J774.A1 cells at 0.5 to 2 uM preincubated for 30 mins followed by LPS addition and measured after 2 hrs by Western blotting analysis", "format": "functional, cell-based", "conditions": "dose 0.5-2 µM, time 2.5 hrs"}, "THP-1 [12]": {"tested_on": "THP-1", "assay": "Inhibition of p20 fragment of IL-1beta protein expression in LPS/ATP stimulated human THP-1 cells supernatant by Western blotting analysis", "format": "functional, cell-based"}, "HEK293T [13]": {"tested_on": "HEK293T", "assay": "Inhibition of recombinant caspae-1 C244A mutant (unknown origin) to GSDMD (unknown origin) interaction expressed in HEK293T cells", "format": "cell-based", "conditions": "Homo sapiens"}, "J774.A1 [14]": {"tested_on": "J774.A1", "assay": "Effect on ASC oligomerization in mouse J774.A1 cells at 2 uM pretreated with LPS for 3 hrs prior to compound addition followed by nigericin stimulation", "format": "functional, cell-based"}, "[15]": {"molecular_target": "NACHT, LRR and PYD domains-containing protein 3 (Mus musculus) (UniProt Q8R4B8)", "assay": "Inhibition of NLRP3 inflammasome activation in LPS primed Casp1 knockout mouse BMDM cells transfected with caspase-1 C285A mutant assessed as reduction in IL-1beta release at 2 uM preincubated for 30 mins followed by nigericin stimulation", "format": "cell-based"}, "Mus musculus [16]": {"tested_on": "Mus musculus", "assay": "Anti-inflammatory activity in MSU/C18:0 free fatty acid induced Kunming mouse model of gouty arthritis assessed as reduction IL-1beta expression at 5 to 20 mg/kg, ip preadministered with compound for 30 mins followed by MSU/C18:0 free fatty acid injection and measured after 24 hrs by Western blotting analysis", "format": "functional, organism-based", "conditions": "dose 5-20 mg/kg, time 24.5 hrs"}, "[17]": {"molecular_target": "NACHT, LRR and PYD domains-containing protein 3 (Mus musculus) (UniProt Q8R4B8)", "assay": "Inhibition of NLRP3 inflammasome activation in mouse J774.A1 cells assessed as reduction in NLRP3 protein expression at 0.5 to 2 uM preincubated for 30 mins followed by LPS stimulation for 6 hrs by Western blotting analysis", "format": "cell-based", "conditions": "dose 0.5-2 µM, time 6.5 hrs"}, "THP-1 [18]": {"tested_on": "THP-1", "assay": "Inhibition of p20 fragment of IL-1beta protein expression in LPS/MSU stimulated human THP-1 cells supernatant by Western blotting analysis", "format": "functional, cell-based"}, "[19]": {"molecular_target": "NACHT, LRR and PYD domains-containing protein 3 (Mus musculus) (UniProt Q8R4B8)", "assay": "Inhibition of NLRP3 inflammasome activation activation in LPS/nigericin stimulated mouse J774.A1 cells assessed as reduction in IL-1beta production pretreated with LPS for 3 hrs prior to compound addition for 30 mins followed by nigericin addition and measured after 45 mins by ELISA", "format": "cell-based", "conditions": "dose 0.001-2000 nM, time 75.0 min"}, "HEK293T [20]": {"tested_on": "HEK293T", "assay": "Inhibition of recombinant caspae-1 C397A mutant (unknown origin) to GSDMD (unknown origin) interaction expressed in HEK293T cells", "format": "cell-based", "conditions": "Homo sapiens"}, "J774.A1 [21]": {"tested_on": "J774.A1", "assay": "Binding affinity to pro-caspase 1 in mouse J774.A1 cells assessed as increase in protein stability incubated for 30 mins by CETSA", "format": "cell-based", "conditions": "dose 1-100 µM"}, "J774.A1 [22]": {"tested_on": "J774.A1", "assay": "Inhibition of pyroptosis in mouse J774.A1 cells assessed as reduction in number of annexin V and PI positive cells pretreated with LPS for 3 hrs followed by compound addition in presence of nigericin by flow cytometry analysis", "format": "functional, cell-based"}, "Caspase-1 (Homo sapiens)": {"molecular_target": "T1, Caspase-1 (Homo sapiens) (UniProt P29466)", "T1 sequence (whole entry)": "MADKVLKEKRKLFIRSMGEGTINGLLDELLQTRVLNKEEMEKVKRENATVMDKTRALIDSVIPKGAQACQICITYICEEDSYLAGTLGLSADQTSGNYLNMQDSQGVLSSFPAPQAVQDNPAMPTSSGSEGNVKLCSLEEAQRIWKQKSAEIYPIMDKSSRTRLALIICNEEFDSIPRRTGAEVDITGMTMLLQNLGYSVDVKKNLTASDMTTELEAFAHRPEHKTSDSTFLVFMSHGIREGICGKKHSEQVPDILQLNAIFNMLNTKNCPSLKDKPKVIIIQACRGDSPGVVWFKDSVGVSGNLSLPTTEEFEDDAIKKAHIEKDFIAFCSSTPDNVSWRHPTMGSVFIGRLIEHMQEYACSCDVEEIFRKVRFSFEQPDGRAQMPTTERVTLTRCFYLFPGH", "assay": "Inhibition of recombinant human caspase-1 expressed in Escherichia coli BL21 cells assessed as remaining activity at 100 uM using […] as substrate incubated for 30 mins relative to control"}, "J774.A1 [23]": {"tested_on": "J774.A1", "assay": "Inhibition of pro-caspase 1 to RIP2 interaction in LPS stimulated mouse J774.A1 cells at 1 uM by immunoprecipitation method", "format": "cell-based"}, "THP-1 [24]": {"tested_on": "THP-1", "assay": "Effect on cleaved caspase-4 expression in human THP-1 cells at 2 uM pretreated with pam3CSK4 for 3 hrs followed by compound addition for 30 mins prior to cytosolic LPS stimulation for 16 hrs by ELISA", "format": "functional, cell-based", "conditions": "time 16.5 hrs"}, "[25]": {"assay": "Acute toxicity in Kunming mouse assessed as liver damage at 100 mg/kg, ip administered for 14 days", "format": "organism-based", "conditions": "in vivo, 336 h, time 14 day"}, "[26]": {"molecular_target": "NACHT, LRR and PYD domains-containing protein 3 (Mus musculus) (UniProt Q8R4B8)", "assay": "Inhibition of NLRP3 inflammasome activation in LPS/MSU stimulated mouse J774.A1 cells assessed as reduction in IL-18 production incubated for 4 hrs by ELISA", "format": "cell-based"}, "HEK293T [27]": {"tested_on": "HEK293T", "assay": "Inhibition of recombinant caspae-1 C169A mutant (unknown origin) to GSDMD (unknown origin) interaction expressed in HEK293T cells", "format": "cell-based", "conditions": "Homo sapiens"}}, "note": "Active and inactive are the calls of the source. The calls are words filed in the database; no cut-off is given here."}
{"compound": "COc1ccc2c(c1)[C@]1(C=C[C@H](N=C=S)C[C@H]1C(=O)OC(C)(C)C)C(=O)N2C(=O)OCc1ccccc1", "values": [{"measurement": "Activity", "setting": "Mus musculus [1]", "result": "inactive"}, {"measurement": "inhibition", "setting": "HEK293T [2]", "result": "inactive"}, {"measurement": "inhibition", "setting": "J774.A1 [3]", "result": "Active"}, {"measurement": "inhibition", "setting": "J774.A1 [4]", "result": "Active"}, {"measurement": "Activity", "setting": "THP-1 [5]", "result": "inactive"}, {"measurement": "Activity", "setting": "J774.A1 [6]", "result": "Active"}, {"measurement": "Activity", "setting": "BMDM", "result": "inactive"}, {"measurement": "inhibition", "setting": "Mus musculus [7]", "result": "inactive"}, {"measurement": "inhibition", "setting": "[8]", "result": "Active"}, {"measurement": "inhibition", "setting": "THP-1 [9]", "result": "Active"}, {"measurement": "Activity", "setting": "THP-1 [10]", "result": "inactive"}, {"measurement": "Activity", "setting": "J774.A1 [11]", "result": "Active"}, {"measurement": "inhibition", "setting": "THP-1 [12]", "result": "Active"}, {"measurement": "inhibition", "setting": "HEK293T [13]", "result": "Active"}, {"measurement": "inhibition", "setting": "J774.A1 [14]", "result": "Active"}, {"measurement": "inhibition", "setting": "[15]", "result": "inactive"}, {"measurement": "Activity", "setting": "Mus musculus [16]", "result": "Active"}, {"measurement": "inhibition", "setting": "[17]", "result": "Active"}, {"measurement": "inhibition", "setting": "THP-1 [18]", "result": "Active"}, {"measurement": "inhibition", "setting": "[19]", "result": "Dose-Dependent Effect"}, {"measurement": "inhibition", "setting": "HEK293T [20]", "result": "inactive"}, {"measurement": "Activity", "setting": "J774.A1 [21]", "result": "Dose-Dependent Effect"}, {"measurement": "inhibition", "setting": "J774.A1 [22]", "result": "Active"}, {"measurement": "Activity", "setting": "Caspase-1 (Homo sapiens)", "result": 16, "unit": "%"}, {"measurement": "inhibition", "setting": "J774.A1 [23]", "result": "Active"}, {"measurement": "Activity", "setting": "THP-1 [24]", "result": "inactive"}, {"measurement": "Activity", "setting": "[25]", "result": "Non-Toxic"}, {"measurement": "inhibition", "setting": "[26]", "result": "Active"}, {"measurement": "inhibition", "setting": "HEK293T [27]", "result": "Active"}]}
